Our source for the IC50 values is EP4342890A1, “PLATFORM AND SCAFFOLD FOR FAP TARGETING AGENTS” (Erasmus University Rotterdam Medical Center, priority 2022, dated 2024).

Structures are written as SMILES.

The target in one assay is T1, murine FAP (Mus musculus, UniProt P97321).
T1 sequence (P97321 1-761): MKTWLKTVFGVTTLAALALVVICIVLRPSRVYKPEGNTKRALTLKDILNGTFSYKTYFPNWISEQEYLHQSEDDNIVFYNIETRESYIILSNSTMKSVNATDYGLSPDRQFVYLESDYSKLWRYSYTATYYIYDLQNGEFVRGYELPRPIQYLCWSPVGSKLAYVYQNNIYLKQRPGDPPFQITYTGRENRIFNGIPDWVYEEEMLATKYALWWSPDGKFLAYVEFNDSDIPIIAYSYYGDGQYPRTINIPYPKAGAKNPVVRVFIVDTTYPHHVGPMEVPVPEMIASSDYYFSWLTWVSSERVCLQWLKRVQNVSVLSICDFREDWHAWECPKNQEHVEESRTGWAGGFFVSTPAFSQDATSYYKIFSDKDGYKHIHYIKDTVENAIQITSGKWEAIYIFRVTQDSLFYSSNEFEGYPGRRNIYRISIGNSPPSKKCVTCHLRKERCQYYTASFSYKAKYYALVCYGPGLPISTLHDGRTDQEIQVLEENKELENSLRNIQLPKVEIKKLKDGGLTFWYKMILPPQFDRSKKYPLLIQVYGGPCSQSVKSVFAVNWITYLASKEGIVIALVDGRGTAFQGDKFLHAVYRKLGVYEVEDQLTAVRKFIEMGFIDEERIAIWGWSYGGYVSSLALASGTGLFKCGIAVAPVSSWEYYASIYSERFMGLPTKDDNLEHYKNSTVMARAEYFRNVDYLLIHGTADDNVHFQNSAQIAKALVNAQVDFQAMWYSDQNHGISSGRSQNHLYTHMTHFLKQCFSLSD
Description: In vitro inhibition assay on mouse FAP (Z-GP-AMC substrate). In kind it is biochemical. The note with it: enzymatic assay; 20 µM Z-GP-AMC, 20 nM FAP; unit inferred. The procedure:
(§1) Enzymatic activity of human FAP (hFAP) and mouse FAP (mFAP) on the Z-GP-AMC substrate was measured at room temperature on a Hidex microplate reader by monitoring the fluorescence at an excitation wavelength of 360 nm and an emission wavelength of 465 nm. The reaction mixture contained 20 µM substrate, 20 nM FAP, assay buffer (50 mM Tris, 100 mM NaCl, 1 mM EDTA, pH 7.4) and tested compound (serial dilution from 10^-6 to 10^-12) in a total volume of 50 µL.

The target in assay [1] is T2, FAP (Homo sapiens, UniProt Q12884).
T2 sequence (Q12884 1-760): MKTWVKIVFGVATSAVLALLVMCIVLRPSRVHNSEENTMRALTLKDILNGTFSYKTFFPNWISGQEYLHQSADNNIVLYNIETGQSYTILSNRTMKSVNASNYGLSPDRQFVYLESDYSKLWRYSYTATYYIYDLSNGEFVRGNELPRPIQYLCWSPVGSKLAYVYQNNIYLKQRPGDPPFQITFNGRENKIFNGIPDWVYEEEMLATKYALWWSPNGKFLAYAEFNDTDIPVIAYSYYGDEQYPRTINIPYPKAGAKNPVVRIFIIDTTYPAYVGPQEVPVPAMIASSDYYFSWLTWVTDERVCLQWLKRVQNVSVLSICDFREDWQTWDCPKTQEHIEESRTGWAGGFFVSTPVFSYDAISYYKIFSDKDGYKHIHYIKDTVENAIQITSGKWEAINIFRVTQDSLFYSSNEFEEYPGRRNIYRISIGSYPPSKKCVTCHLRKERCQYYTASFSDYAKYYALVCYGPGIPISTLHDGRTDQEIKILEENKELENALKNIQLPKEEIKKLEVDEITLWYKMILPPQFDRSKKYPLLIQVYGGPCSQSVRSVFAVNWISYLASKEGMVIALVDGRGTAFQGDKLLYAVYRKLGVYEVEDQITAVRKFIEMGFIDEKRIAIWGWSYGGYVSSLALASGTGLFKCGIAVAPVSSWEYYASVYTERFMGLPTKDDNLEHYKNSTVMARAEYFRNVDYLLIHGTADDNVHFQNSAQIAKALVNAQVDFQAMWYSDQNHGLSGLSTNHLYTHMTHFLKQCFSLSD
In words: Competitive binding assay against [111In]In-FAPI-46 in HT-1080.hFAP cells. Set-up: expressed in transfected cells; host or cells: HT-1080.hFAP cells. To be noted: competition with [111In]In-FAPI-46 in HT-1080.hFAP cells, 37 °C, 1 h; unit inferred. As for the experimental part:
The U-87 MG glioblastoma was cultured at 37 °C and 5% CO2 in Dulbecco's Modified Eagle Medium (DMEM) supplemented with 10 % (v/v) fetal calf serum. HT-1080.hFAP cells were kept in culture in DMEM medium supplemented with fetal bovine serum (10%, FBS) and antibiotic antimycotic (1%, AA) at 37 °C and 5% CO2. For passaging, cells were detached using Trypsin-EDTA 0.05% when reaching 90% confluence and re-seeded at a dilution of 1:4.
Competition binding experiments were conducted by incubation of the [^111In]In-FAPI-46 radioligand with increasing concentrations of eFAP compound in HT-1080.hFAP cells at 37 °C for 1 h. Cells were then washed three times with binding buffer and lysed. The cell-associated radioactivity was measured in a γ-counter. The IC50 values were calculated by fitting the data by non-linear regression using GraphPad Prism.

The target of assay [2] is T2, FAP. Description: In vitro inhibition assay on human FAP (Z-GP-AMC substrate). The note with it: enzymatic assay; 20 µM Z-GP-AMC, 20 nM FAP; unit inferred. In kind it is biochemical. The procedure: as §1

As a reminder, the IC50 is the concentration that inhibits the measured activity by half. The low end stands for greater potency, the high end for weaker potency. As for `CN(CCCN1CCN(C(=O)CN2CCN(CC(=O)O)CCN(CC(=O)O)CCN(CC(=O)O)CC2)CC1)c1ccc2nccc(C(=O)NCC(=O)N3CC(F)(F)C[C@H]3C#N)c2c1` [FAPI-46, reference compound], the IC50 against murine FAP is 15 ± 2 nM; on FAP [1] it was 1.6 ± 0.3 nM; on FAP [2] it was 2.7 ± 1.7 nM.
